Laboratory results published in patent US11479804B1 (priority 2010, dated 2022).
Entries after “also recorded” stand apart in the source; their conditions may differ.

Tests used:
acetylcholinesterase [1] = target: T1, acetylcholinesterase (Homo sapiens, UniProt P22303); type: biochemical
acetylcholinesterase [2] = target: T1, acetylcholinesterase; test: Acetylcholinesterase assay with malaoxon in complex samples (apple juice, whole milk, soil) using GEMBE; type: biochemical; conditions: for LOD in filtered apple juice: filtered apple juice (10× dilution); for LOD in soil: soil added as a slurry to the sample reservoir; for LOD in whole milk: whole milk (10× dilution)
Method: (§1) Assay Conditions in Apple Juice. A running buffer was prepared consisting of 4-(2-hydroxyethyl)-1-piperazineethanesulfonic acid, i.e. HEPES, at a concentration of ˜100 mM and 2-[Bis(2-hydroxyethyl)amino]-2-(hydroxymethyl)-1,3-propanediol, i.e. BIS-TRIS, at a concentration of ˜100 mM. The running buffer was prepared at pH ˜7.1. EOTrol™ HR (Target Discovery, Palo Alto, Calif.) was added to the run buffer as a dynamic coating to reverse the direction of EOF at a concentration of 1% (by volume).
(§2) Prior to reaction, the surface of a polyoxymethylene sample reservoir (Delrin, DuPont, Wilmington, Del.) was passivated with bovine serum albumin (˜2 mg/mL). A sample containing malaoxon (˜1 mM) in filtered apple juice (10× dilution) was added to the sample reservoir. Acetylcholine (˜500 μM) and acetylcholinesterase (˜10.4 nM) were added to the sample reservoir and were allowed to incubate for ˜5 min.
as §1, with “Whole Milk.” for “Apple Juice.”
as §2, with “(2” for “(˜2”, “whole milk (4% milk fat, Giant Food) at a dilution of 10×” for “filtered apple juice (10× dilution)”, “minutes.” for “min.”
as §1, with “Soil.” for “Apple Juice.”
Prior to reaction, the surface of a polyoxymethylene sample reservoir (Delrin, DuPont, Wilmington, Del.) was passivated with bovine serum albumin (2 mg/mL). A sample containing malaoxon (˜1 mM) in soil was added as a slurry to the sample reservoir. Acetylcholine (˜500 μM) and acetylcholinesterase (˜10.4 nM) were added to the sample reservoir and were allowed to incubate for ˜5 min.
Separation of Acetylcholine and Choline Using Gradient Elution Moving Boundary Electrophoresis. The reaction mixtures were separately introduced into the inlet end of the separation channel of a GEMBE device, wherein a voltage of ˜−2000V was applied on the waste chamber. During the GEMBE separation, the pressure applied to the run buffer reservoir was varied from about 6,000 Pa to about −8,000 Pa at a rate of −300 Pa/s. The concentration of choline was detected and quantified.

[3] = acetylcholine ~500 μM, acetylcholinesterase ~10.4 nM

T1 sequence (P22303 32-614): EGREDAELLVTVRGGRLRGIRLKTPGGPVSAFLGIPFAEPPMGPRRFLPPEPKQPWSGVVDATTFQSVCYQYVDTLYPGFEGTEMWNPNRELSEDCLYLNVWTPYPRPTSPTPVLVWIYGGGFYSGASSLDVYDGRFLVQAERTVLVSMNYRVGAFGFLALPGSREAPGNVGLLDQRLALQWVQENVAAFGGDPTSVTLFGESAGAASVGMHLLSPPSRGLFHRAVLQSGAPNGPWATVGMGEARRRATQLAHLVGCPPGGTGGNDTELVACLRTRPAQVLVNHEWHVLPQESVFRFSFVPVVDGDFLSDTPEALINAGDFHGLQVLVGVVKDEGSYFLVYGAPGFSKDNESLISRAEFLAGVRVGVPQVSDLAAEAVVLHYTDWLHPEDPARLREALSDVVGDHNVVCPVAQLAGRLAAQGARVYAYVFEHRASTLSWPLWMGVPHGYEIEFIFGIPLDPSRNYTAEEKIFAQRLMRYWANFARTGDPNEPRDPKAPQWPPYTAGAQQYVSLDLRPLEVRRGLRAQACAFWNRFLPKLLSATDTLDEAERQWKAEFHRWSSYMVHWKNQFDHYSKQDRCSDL

## CCOC(=O)CC(SP(=O)(OC)OC)C(=O)OCC (stereo not drawn) [malaoxon]
Acetylcholinesterase [1]
  concentration of choline formed (inhibition of acetylcholinesterase): a decrease in the concentration of choline was observed; also recorded: the concentration of choline does not increase over time
  limit of detection (LOD): 87.7 ppb
  limit of detection (LOD) from conversion rate of acetylcholine to choline: ~279 nM
Acetylcholinesterase [2]
  LOD in filtered apple juice: 85.6 ppb
  LOD in soil: 1.5 ppm
  LOD in whole milk: 82.0 ppb
Acetylcholinesterase [2]; [3]
  LOD in filtered apple juice: ~2.72e-07 M
  LOD in soil: ~4.93e-06 M
  LOD in whole milk: ~2.61e-07 M
